Data from paper PMC6152377, “Structure-Activity Relationships of Acyclic Selenopurine Nucleosides as Antiviral Agents” (Molecules : A Journal of Synthetic Chemistry and Natural …, 2017).
Where two headings read alike, the source gives them in different places.

What was measured:
[1] = Cytotoxicity (cytocidal) assay, MTT; assay type: cell-based; conditions: human, 50% reduction of cell viability, mock infection
Procedure: (§1) All the final compounds 3a–f and 4a–g were assayed for their antiviral activity against several herpes viruses such as HSV-1 (strain F, VR-733), HSV-2 (strain MS, VR-540), VZV (Ellen, VR-1367), and HCMV (Davis, VR-807). Cytotoxicity data were measured in HEL299 (CCL-137) cells as described previously. […] Antiviral activity was measured using a standard cytopathic (CPE) inhibition assay as described before. Briefly, Vero cells in stationary phase were infected with the virus at a multiplicity of infection of 2–4 CCID50 (50% cell culture inhibitory dose) per each well of 96-well plates. After 2 h of adsorption at 37 °C, the liquid was aspirated and 100 μL of Dulbeco’s modified eagle’s media (DMEM)/2% fetal bovine serum (FBS) containing a compound was applied to each well in duplicate for each concentration and further incubated for 3 days. Antiviral activity was measured by MTT assay and expressed as the EC50. Cytocidal assay was performed as a control experiment for the antiviral assay. It was carried out simultaneously with the antiviral assay described above using mock instead of virus for infection, and cell viability was measured by MTT assay. The concentration of the compound responsible for 50% reduction of cell growth was calculated and expressed as CC50.

HSV-1 (strain F, VR-733) [2] = experiment: CPE inhibition antiviral assay, HSV-1; assay type: cell-based, herpes simplex virus (HSV)-1; conditions: Human alphaherpesvirus 1, 72 h, inhibition of virus-induced cytopathic effect by 50%, MTT readout, 3 days
Procedure: as §1

[3] = test system: HSV-2 (strain MS, VR-540); experiment: CPE inhibition antiviral assay, HSV-2; assay type: cell-based; conditions: Human alphaherpesvirus 2, 72 h, inhibition of virus-induced cytopathic effect by 50%, MTT readout, 3 days
Procedure: as §1

HCMV (Davis, VR-807) [4] = experiment: CPE inhibition antiviral assay, HCMV; assay type: cell-based, human cytomegalovirus (HCMV); conditions: Human betaherpesvirus 5; inhibition of virus-induced cytopathic effect by 50%; strain Davis; MTT readout
Procedure: as §1

VZV (Ellen, VR-1367) [5] = experiment: CPE inhibition antiviral assay, VZV; assay type: cell-based, varicella-zoster virus (VZV); conditions: Human alphaherpesvirus 3; inhibition of virus-induced cytopathic effect by 50%; strain Ellen; MTT readout
Procedure: as §1

HSV-1 (strain F, VR-733) [6] = test system: HSV-1 (strain F, VR-733); parameters: method as in PMID 20466277; conditions: inhibition of virus-induced cytopathic effect by 50%, ref [11]; cited from earlier work
HEL299 (CCL-137) cells = conditions: read-out: CC50 HEL299, 50% reduction of cell viability, ref [11]; cited from earlier work
VZV (Ellen, VR-1367) [7] = test system: VZV (Ellen, VR-1367); parameters: method as in PMID 20466277; conditions: inhibition of virus-induced cytopathic effect by 50%; strain Ellen; ref [11]; cited from earlier work
HCMV (Davis, VR-807) [8] = test system: HCMV (Davis, VR-807); parameters: method as in PMID 20466277; conditions: inhibition of virus-induced cytopathic effect by 50%; strain Davis; ref [11]; cited from earlier work
[9] = test system: HSV-2 (strain MS, VR-540); parameters: method as in PMID 20466277; conditions: inhibition of virus-induced cytopathic effect by 50%, ref [11]; cited from earlier work

| Structure (SMILES) | CC50 at 3 days ([1]; HEL299 cells) | EC50 (HSV-1 (strain F, VR-733) [2]) | EC50 [3] | EC50 (HCMV (Davis, VR-807) [4]) | melting point | EC50 (VZV (Ellen, VR-1367) [5]) | EC50 (HSV-1 (strain F, VR-733) [6]) | CC50 (HEL299 (CCL-137) cells) | EC50 (VZV (Ellen, VR-1367) [7]) | EC50 (HCMV (Davis, VR-807) [8]) | EC50 [9] | CC50 at 3 days ([1]; HEL299 (CCL-137) cells, mock-infected) |
| --- | --- | --- | --- | --- | --- | --- | --- | --- | --- | --- | --- | --- |
| CNc1ncnc2c1ncn2C[Se]C(CO)CO [Compound 3e, 2-((6-(Methylamino)-9H-purin-9-yl)methylselanyl)propane-1,3-diol] | > 100 µM | > 100 µM | > 100 µM | > 100 µM | 180 to 183 °C | > 100 µM | – | – | – | – | – | – |
| Nc1nc2c(ncn2C[Se]C(CO)CO)c(=O)[nH]1 [Compound 4d, 9-((1,3-Dihydroxypropan-2-ylselanyl)methyl)-2-amino-1H-purin-6(9H)-one] | – | – | – | – | – | – | > 100 µM | > 100 µM | > 100 µM | 53.1 µM | > 100 µM | – |
| O=c1[nH]cnc2c1ncn2C[Se]CCO [Compound 3a, 9-((2-Hydroxyethylselanyl)methyl)-1H-purin-6-(9H)-one] | > 100 µM | > 100 µM | > 100 µM | > 100 µM | 225 to 227 °C | > 100 µM | – | – | – | – | – | – |
| Nc1nc2c(ncn2C[Se]CCO)c(=O)[nH]1 [Compound 4a, 9-((2-Hydroxyethylselanyl)methyl)-2-amino-1H purin-6(9H)-one] | – | – | – | – | – | – | 1.47 µM | > 100 µM | > 100 µM | > 100 µM | 6.34 µM | – |
| Nc1nc(NC2CC2)c2ncn(C[Se]C(CO)CO)c2n1 [Compound 4g, 2-((2-Amino-6-(cyclopropylamino)-9H-purin-9-yl)methylselanyl)propane-1,3-diol] | > 100 µM | > 100 µM | > 100 µM | 41.1 µM | – | > 100 µM | – | – | – | – | – | – |
| CNc1nc(N)nc2c1ncn2C[Se]CCO [Compound 4b, 2-((2-Amino-6-(methylamino)-9H-purin-9-yl)methylselanyl) ethanol] | > 100 µM | 14.3 µM | 17.6 µM | > 100 µM | 183 to 185 °C | > 100 µM | – | – | – | – | – | – |
| Nc1nc(N)c2ncn(C[Se]CCO)c2n1 [Compound 4c, 2-((2,6-Diamino-9H-purin-9-yl)methylselanyl) ethanol] | > 100 µM | 15.4 µM | 23.2 µM | > 100 µM | 84 to 86 °C | > 100 µM | – | – | – | – | – | – |
| Nc1nc2c(ncn2COCCO)c(=O)[nH]1 [Compound 1, acyclovir, reference compound] | – | 0.66 µM | 1.02 µM | 18.9 µM | – | 6.4 µM | – | – | – | – | – | – |
| CNc1nc(N)nc2c1ncn2C[Se]C(CO)CO [Compound 4e, 2-((2-Amino-6-(methylamio)-9H-purin-9-yl)methylselanyl) propane-1,3-diol] | > 100 µM | > 100 µM | > 100 µM | 32.1 µM | 140 to 143 °C | > 100 µM | – | – | – | – | – | – |
| Nc1nc(N)c2ncn(C[Se]C(CO)CO)c2n1 [Compound 4f, 2-((2,6-Diamino-9H-purin-9-yl)methylselanyl)propane-1,3-diol] | > 100 µM | > 100 µM | > 100 µM | 34.3 µM | 193 to 196 °C | > 100 µM | – | – | – | – | – | – |
| O=c1[nH]cnc2c1ncn2C[Se]C(CO)CO [Compound 3d, 9-((1,3-Dihydroxypropan-2-ylselanyl)methyl)-1H purin-6(9H)-one] | > 100 µM | > 100 µM | > 100 µM | > 100 µM | – | > 100 µM | – | – | – | – | – | – |
| CNc1ncnc2c1ncn2C[Se]CCO [Compound 3b, 2-((6-(Methylamino)-9H-purin-9-yl)methylselanyl) ethanol] | > 100 µM | > 100 µM | > 100 µM | > 100 µM | 171 to 173 °C | > 100 µM | – | – | – | – | – | – |
| Nc1ncnc2c1ncn2C[Se]CCO [Compound 3c, 2-((6-Amino-9H-purin-9-yl)methylselanyl)ethanol] | > 100 µM | > 100 µM | > 100 µM | > 100 µM | 175 to 177 °C | > 100 µM | – | – | – | – | – | – |
| Nc1nc(O)c2ncn(COC(CO)CO)c2n1 [Compound 2, ganciclovir, reference compound] | – | 0.9 µM | 1.4 µM | 2.14 µM | – | 11.1 µM | – | – | – | – | – | > 100 µM |
| Nc1ncnc2c1ncn2C[Se]C(CO)CO [Compound 3f, 2-((6-Amino-9H-purin-9-yl)methylselanyl)propane-1,3-diol] | > 100 µM | > 100 µM | > 100 µM | 65.2 µM | 186 to 188 °C | > 100 µM | – | – | – | – | – | – |
